Test system: human promonocytic lymphoma cells (U937)
Experiment: Microculture indicator system (MIS), MTT growth inhibition assay with bivariate serial dilutions
Format: cell-based
Conditions: for Potentiation of DNA damage by STSP as RA: U937, concentrations less than IC40, STSP as the TCI
Experimental: Microcultures of human promonocytic lymphoma cells (U937) (“the U937 cells”) originally obtained from the American Type Culture Collection (CRL 1593) and later grown by Dr. K. Zoon at the FDA in Bethesda, Md. were set up in a multiwell plate with serial two-fold dilutions of dThd in tissue culture growth medium (RPMI 1640 plus 10% Nurserum and antibiotics). The volume of medium per well was 100 μl and the cell number per well was about 1×10^5. The plate was incubated at 37° C. for 24 hr.
A dye, 3-[4,5-dimethylthiazol-2-yl]-2,5-diphenyl-tetrazolium bromide (MTT), was used as a chromogenic indicator of the metabolically active cell mass. Viable cells metabolize the dye and accumulate a reduced formazan product (blue color) which is solubilized for colorimetry. Mossman T, J. Immunol. Methods 5:55-63 (1983); Li L and Lau B H S, In Vitro Cell Dev. Biol. 29A:531-536 (1993). The MTT assay has been established as useful for measuring either growth inhibition or population killing. Plowman, supra. The MTT method is ideal for cells tested in suspension growth, and can also be used for some cells growing in monolayers. […] Alley, supra; Hofs, supra; Wilson J K et al., Br. J. Cancer 62:189-94 (1990); Plowman, supra.
Thirty μl of 0.5% MTT in phosphate buffered saline was added to each microculture well at the appropriate time. After incubation at 37° C. for 3 hr, 120 μl of an aqueous solution of 10 % SDS with 0.01 N HCl was added to release and dissolve formazan product. This was accomplished by overnight incubation of the plate at 37° C. After careful mixing of the microwell contents by placing the plates on an orbital shaker for 5 minutes the absorbencies were quantitated by spectrophotometry at 570 nm with a Ceres UV 900 HDI microwell plate reader (from Biotek Instruments Inc, Winooski, Vt. 05404-0998). Absorbance data was normalized to a blank well containing all reagents without cells and was collected semi-automatically.
Flat-bottom 96-well plates of tissue culture quality (Corning or Costar) were set up with two-fold serial dilutions of each agent to be tested, e.g., the RA and TCI, using a multichannel pipettor with adjustable volume, e.g., Costar or Rainin, to perform serial mixing. This set-up is diagrammed in FIG. 12. […] In each plate, a total of 59 wells then contained bivariate agent combinations, the bivariate serial dilutions.
Agents were serially diluted by serial mixing in two separate plates or series of wells, and then were combined prior to addition of a fixed volume and density of the U937 cells in a suspension calculated to deliver about 1×10^5 cells per well.
Cells were added after serial dilutions of the dThd had been dispensed. Cells were dispensed at about 10×10^4 cells per microwell to provide optimal sensitivity of detection of cell damage in subsequent calorimetric assays. […] The final volume of medium was 100 μl/well. The plates were further incubated at 37° C. for a total duration of 18-24 h. The dye MTT was used as a chromogenic indicator of the residual and metabolically active cell mass. (Described in Example 1).
In this MTT assay, normalized absorbance data was collected semi-automatically from each microculture well with a Ceres UV 900 HD1 plate reader, from Biotek Instruments Inc., Winooski, V T 05404-0998, stored in an EIA file under the Ceres 900 program, transferred in comma delimited format to a floppy diskette, and imported into a spread sheet program (Borland Quattro Pro) for data manipulations.

[1] = U937, total 17 H, STSP 17 H, dGuo 0 H, dGuo 0.01 mM (ninth dilution, c19), STSP nM by row: r7 100, r8 50, r9 25, r10 12.5, r11 6.25, r12 3.13, r13-r14 0
[2] = U937, total 17 H, STSP 17 H, dGuo 0 H, dGuo 0.01 mM (tenth dilution, c21), STSP nM by row: r7 100, r8 50, r9 25, r10 12.5, r11 6.25, r12 3.13, r13-r14 0
[3] = U937, total 17 H, STSP 17 H, dGuo 0 H, dGuo 0.02 mM, STSP nM by row: r7 100, r8 50, r9 25, r10 12.5, r11 6.25, r12 3.13, r13-r14 0
[4] = U937, total 17 H, STSP 17 H, dGuo 0 H, dGuo 0.06 mM, STSP nM by row: r7 100, r8 50, r9 25, r10 12.5, r11 6.25, r12 3.13, r13-r14 0
[5] = U937, total 17 H, STSP 17 H, dGuo 0 H, dGuo 0.09 mM, STSP nM by row: r7 100, r8 50, r9 25, r10 12.5, r11 6.25, r12 3.13, r13-r14 0
[6] = U937, total 17 H, STSP 17 H, dGuo 0 H, dGuo 3.00 mM, STSP nM by row: r7 100, r8 50, r9 25, r10 12.5, r11 6.25, r12 3.13, r13-r14 0

SMILES: COC(=O)[C@@]1(O)C[C@H]2O[C@]1(C)n1c3ccccc3c3c4c(c5c6ccccc6n2c5c31)C(=O)NC4 [K252a]
- combined results ratio, K252a only (U937, K252a only 15 H, K252a uM by row: r7 2, r8 1, r9 0.5, r10 0.25, r11 0.13, r12 0.06): 1.0
- combined results ratio, K252a only (U937, K252a only 20 H, K252a nM by row: r7 625, r8 313, r9 156, r10 78.1, r11 39.1, r12 19.5): 1.0

SMILES: CN(Cc1cnc2nc(N)nc(N)c2n1)c1ccc(C(=O)N[C@@H](CCC(=O)O)C(=O)O)cc1 [MTX, methotrexate]
- inhibition at 0.004 µM (Homo sapiens, U-937, U937, total 20 H, STSP 16 H, MTX 4 H, MTX 4 nM, STSP nM: 200, 100, 50, 25, 12.5, 6.25, 0): 20%
- inhibition at 0.008 µM (Homo sapiens, U-937, U937, total 20 H, STSP 16 H, MTX 4 H, MTX 8 nM, STSP nM: 200, 100, 50, 25, 12.5, 6.25, 0): 38%
- inhibition at […] (Homo sapiens, U-937, U937, total 20 H, STSP 16 H, MTX 4 H, MTX 16 nM, STSP nM: 200, 100, 50, 25, 12.5, 6.25, 0): 48%
- inhibition at […] (Homo sapiens, U-937, U937, total 20 H, STSP 16 H, MTX 4 H, MTX 31 nM, STSP nM: 200, 100, 50, 25, 12.5, 6.25, 0): 43%
- inhibition at […] (Homo sapiens, U-937, U937, total 20 H, STSP 16 H, MTX 4 H, MTX 63 nM, STSP nM: 200, 100, 50, 25, 12.5, 6.25, 0): 47%
- inhibition at 0.125 µM (Homo sapiens, U-937, U937, total 20 H, STSP 16 H, MTX 4 H, MTX 125 nM, STSP nM: 200, 100, 50, 25, 12.5, 6.25, 0): 52%
- inhibition at […] (Homo sapiens, U-937, U937, total 20 H, STSP 16 H, MTX 4 H, MTX 250 nM, STSP nM: 200, 100, 50, 25, 12.5, 6.25, 0): 57%
- inhibition at 0.5 µM (Homo sapiens, U-937, U937, total 20 H, STSP 16 H, MTX 4 H, MTX 500 nM, STSP nM: 200, 100, 50, 25, 12.5, 6.25, 0): 62%
- inhibition at 1 µM (Homo sapiens, U-937, U937, total 20 H, STSP 16 H, MTX 4 H, MTX 1000 nM, STSP nM: 200, 100, 50, 25, 12.5, 6.25, 0): 61%
- Potentiation of DNA damage by STSP as RA: proved successful in potentiating DNA damage by STSP
- Combined results ratio (U937, total 20 H, STSP 16 H, MTX 4 H, MTX 4 nM, STSP nM: 200, 100, 50, 25, 12.5, 6.25, 0): 1.0
- Combined results ratio (U937, total 20 H, STSP 16 H, MTX 4 H, MTX 8 nM, STSP nM: 200, 100, 50, 25, 12.5, 6.25, 0): 1.0
- Combined results ratio (U937, total 20 H, STSP 16 H, MTX 4 H, MTX 16 nM, STSP nM: 200, 100, 50, 25, 12.5, 6.25, 0): 1.0
- Combined results ratio (U937, total 20 H, STSP 16 H, MTX 4 H, MTX 31 nM, STSP nM: 200, 100, 50, 25, 12.5, 6.25, 0): 1.0
- Combined results ratio (U937, total 20 H, STSP 16 H, MTX 4 H, MTX 63 nM, STSP nM: 200, 100, 50, 25, 12.5, 6.25, 0): 1.0
- Combined results ratio (U937, total 20 H, STSP 16 H, MTX 4 H, MTX 125 nM, STSP nM: 200, 100, 50, 25, 12.5, 6.25, 0): 1.0
- Combined results ratio (U937, total 20 H, STSP 16 H, MTX 4 H, MTX 250 nM, STSP nM: 200, 100, 50, 25, 12.5, 6.25, 0): 1.0
- Combined results ratio (U937, total 20 H, STSP 16 H, MTX 4 H, MTX 500 nM, STSP nM: 200, 100, 50, 25, 12.5, 6.25, 0): 1.0
- Combined results ratio (U937, total 20 H, STSP 16 H, MTX 4 H, MTX 1000 nM, STSP nM: 200, 100, 50, 25, 12.5, 6.25, 0): 1.0

SMILES: Nc1ccn([C@@H]2O[C@H](CO)[C@@H](O)[C@@H]2O)c(=O)n1 [ara-C, 1-β-D-arabinofuranosylcytosine]
- Potentiation of DNA damage by STSP as RA: proved successful in potentiating DNA damage by STSP

SMILES: Cn1c(=O)c2c(ncn2C)n(C)c1=O [caffeine]
- Interaction with STSP (differential O/S plot) (caffeine 0.1-2 mM): strongly antagonized the action of STSP

SMILES: N.N.[Cl][Pt][Cl] [cisplatin]
- combined results ratio, Cisplatin only (U937, Cisplatin only 16 H, Cisplatin uM by row: r7 *****, r8 *****, r9 *****, r10 5.00, r11 2.50, r12 1.25): 1.0
- combined results ratio, Cisplatin only (U937, total 19 H, cisplatin 16 H, no STSP, cisplatin uM by row: r7 80, r8 40, r9 20, r10 10, r11 5, r12 2.5): 1.0

SMILES: Nc1nc2c(ncn2[C@H]2C[C@H](O)[C@@H](CO)O2)c(=O)[nH]1 [dGuo]
- Combined results ratio (CRR), dGuo 0.02 mM (U937, dGuo 0.02 mM for 0 H, STSP for 17 H, total 17 H, STSP nM: 100,50,25,12.5,6.25,3.13, r13 dGuo alone): 1.0
- Growth inhibition (MTT), dGuo 0.02 mM (U937, dGuo 0.02 mM for 0 H, STSP for 17 H, total 17 H, STSP nM: 100,50,25,12.5,6.25,3.13, r14 dGuo alone): 10%
- Combined results ratio (CRR), dGuo 0.06 mM (U937, dGuo 0.06 mM for 0 H, STSP for 17 H, total 17 H, STSP nM: 100,50,25,12.5,6.25,3.13, r13 dGuo alone): 1.0
- Growth inhibition (MTT), dGuo 0.06 mM (U937, dGuo 0.06 mM for 0 H, STSP for 17 H, total 17 H, STSP nM: 100,50,25,12.5,6.25,3.13, r14 dGuo alone): 25%
- Combined results ratio (CRR), dGuo 0.09 mM (U937, dGuo 0.09 mM for 0 H, STSP for 17 H, total 17 H, STSP nM: 100,50,25,12.5,6.25,3.13, r13 dGuo alone): 1.0
- Growth inhibition (MTT), dGuo 0.09 mM (U937, dGuo 0.09 mM for 0 H, STSP for 17 H, total 17 H, STSP nM: 100,50,25,12.5,6.25,3.13, r14 dGuo alone): 57%
- Combined results ratio (CRR), dGuo 3.00 mM (U937, dGuo 3.00 mM for 0 H, STSP for 17 H, total 17 H, STSP nM: 100,50,25,12.5,6.25,3.13, r13 dGuo alone): 1.0
- Growth inhibition (MTT), dGuo 3.00 mM (U937, dGuo 3.00 mM for 0 H, STSP for 17 H, total 17 H, STSP nM: 100,50,25,12.5,6.25,3.13, r14 dGuo alone): 93%
- Combined results ratio (CRR), dGuo […] (U937, dGuo […] for 0 H, STSP for 17 H, total 17 H, STSP nM: 100,50,25,12.5,6.25,3.13, r13 dGuo alone): 1.0
- Combined results ratio [1]: 1.0
- Growth inhibition (MTT) [1]: 2%
- Combined results ratio [2]: 1.0
- Growth inhibition (MTT) [2]: 2%
- Combined results ratio [3]: 1.0
- Growth inhibition (MTT) [3]: 10%
- Combined results ratio [4]: 1.0
- Growth inhibition (MTT) [4]: 25%
- Combined results ratio [5]: 1.0
- Growth inhibition (MTT) [5]: 57%
- Combined results ratio [6]: 1.0
- Growth inhibition (MTT) [6]: 93%

SMILES: O=c1[nH]c(=O)n([C@H]2C[C@H](O)[C@@H](CO)O2)cc1F [floxuridine]
- Potentiation of DNA damage by STSP as RA: proved successful in potentiating DNA damage by STSP

Source: US6455593B1, “Method of dynamic retardation of cell cycle kinetics to potentiate cell damage” (priority 1995, dated 2002)
